Data reported in article PMC5874699, “Antimicrobial and Antibiofilm Activity of UP-5, an Ultrashort Antimicrobial Peptide Designed Using Only Arginine and Biphenylalanine” (Pharmaceuticals, 2018).
Where two headings read alike, the source gives them in different places. Square brackets hold non-standard residues; d marks the D form. Peptide text beside a SMILES is read from it. Bip = N[C@@H](Cc1ccc(-c2ccccc2)cc1)C(=O)O

Assays:
[1] = tested on: Vero cells; assay type: cell-based; conditions: 24 h
Experimental: Vero cells were seeded at 5 × 10^3 cells per well in flat-bottomed 96-well plates, and the plate was incubated for 18–24 h at 37 °C under 5% CO2 to allow cell attachment on the bottom of the plates. Next day, different concentrations of the peptide were prepared as a gradient using growth medium as the diluent (150, 200, 250, 300, 400, 500, and 600 µM). The plates were incubated for 24 h at 37 °C under 5% CO2. Next, 30 μL (2.5 g/L) MTT solutions were added to all wells and the plates were incubated for 4–6 h. After incubation, the MTT-Peptide solution was removed and a 100 μL of DMSO was added to each well and mixed thoroughly by pipetting to dissolve the Formazan crystals at the bottom of the wells until a clear purple color was achieved. The plates were then placed on an ELx808™ Absorbance Microplate Reader (BioTek, Winooski, VT, USA) and the absorbance was measured at λ = 540 nm.

[2] = tested on: human erythrocytes; assay type: cell-based
Experimental: Two milliliters of human blood were placed into a 50 mL centrifuge tube and centrifuged (3000× g). The supernatant was discarded, the cell pellet re-suspended in 48 mL of PBS, and centrifuged as above; this step was repeated twice. Finally, 2 mL of cell pellet were re-suspended in a sterile tube containing 48 mL PBS to reach a final concentration of 4% RBC. […] Positive controls were prepared by adding 5 µL of 0.1% (Triton 100X) to 2 mL of 4% RBC suspension and negative controls were prepared by adding 2 mL of 4% RBC suspension only. All preparations were incubated for 60 min at 37 °C. Next, the tubes were gently vortexed and 1 mL of each sample were removed and placed into sterilized eppendorf tubes and then centrifuged (3000× g). Then, 200 µL of each supernatant was placed into a 96 well-plate. Absorbance was measured at λ = 450 nm with the aid of an ELISA reader. The percentage hemolysis was calculated according to the following equation:(2) % Hemolysis=A−AO/AX−AO×100 where A is the optical density at 450 nm (OD450) of the peptide solution, AO is the OD450 of the negative control (0.9% NaCl) and AX is the OD450 of the positive control (0.1% Triton 10X).

[3] = tested on: S. aureus (ATCC 33591) biofilm; assay type: cell-based, Staphylococcus aureus; conditions: for Viable Biofilm Cells (%): 4 h treatment 37 °C, 8 h recovery, colony count
Experimental: Biofilm formation relied on a published protocol employing the Calgary biofilm device (Innovotech, Edmonton, AB, Canada). Briefly, S. aureus (ATCC 33591) bacterial strain was incubated in MHB and cultures were diluted in the same medium to achieve a concentration of 10^5 CFU/mL. Next, diluted bacterial suspension (150 µL) was added to the sterile 96 peg-lids on which biofilm cells can build up. Negative control lanes were prepared by adding 150 µL MHB to six wells. And then the pegs were incubated for 14–16 h under rotation of 125 rpm at 37 °C to allow biofilm formation on the purpose designed pegs. The pegs were rinsed twice with phosphate-buffered saline (PBS) to remove planktonic cells as a washing step. Each peg-lid was then transferred into a “challenge 96-well microtiter plate” containing 200 μL of different peptides concentrations and the peg-lids containing the biofilms were incubated for four hours at 37 °C under rotation at 125 rpm. After biofilm treatment with the challenge plate, the biofilms were re-washed twice with PBS then transferred into the recovery plate for eight hours. The minimum biofilm eradication concentration MBEC value is defined as the minimum concentration needed to inhibit the re-growth of biofilms after four hours of peptide treatment, washing twice with PBS and incubating in pre-sterilized MHB (recovery plate) for 8 h, using an ELISA plate reader λ = 600 nm. Additionally, the biofilms were assessed for their minimum bactericidal concentration (MBECb), this assay was conducted similar to MBC assay (see Section 2.4.1). MBECb parameter is defined as the lowest concentration able to eradicate 3log^10 of the viable microorganisms in a biofilm (99.9% killing) after 8 h of incubation in recovery plates using the colony count method.

[4] = tested on: P. aeruginosa (ATCC BAA-2114); assay type: cell-based, Pseudomonas aeruginosa; conditions: ATCC BAA-2114, 24 h
Source text: (§1) All bacterial susceptibility, biofilm, and synergistic assays of peptides, antibiotics, and peptides-antibiotics combinations used bacterial strains obtained from the American Type Tissue Culture Collection (ATCC, Manassas, VA, USA) that states the mechanism of resistance for each strain according to ATCC number. Gram-positive bacteria were represented by five strains, the wild type strain Staphylococcus aureus (ATCC 29213) and methicillin-resistant S. aureus (MRSA) (ATCC 33591) in addition to clinically isolated strains S. aureus (ATCC BAA-41& 43300) and Enterococcus faecalis (ATCC BAA-2316). The Gram-negative bacteria strains were represented by wild type strains of Escherichia coli (ATCC 25922 & 35218) and Pseudomonas aeruginosa (ATCC 27853) as well as the clinically isolated multidrug-resistant strain P. aeruginosa (ATCC BAA-2114). The bacteria were cultured onto Muller Hinton Agar (Scharlab, S.L, Barcelona, Spain). Mueller Hinton Broth (Oxoid Ltd., Basingstoke, UK) was used to prepare all bacterial suspensions and to dissolve the peptides and the antibiotics. The assay was performed in sterile 96-well polypropylene microtiter plates.
(§2) All bacterial susceptibility assays were conducted according to the microbroth dilution method outlined by the Clinical and Laboratory Standards Institute (CLSI) guidelines.
(§3) Briefly, pre-sterilized MHB was used as a growth medium for organisms obtained from stock media with glycerol. Bacterial cells were grown overnight in MHB and diluted to 10^6 CFU/mL in the same medium prior to use. For peptide, serial concentrations in the range of 0.5–100 μM were prepared. Then, 50 μL of each peptide concentration and 50 µL of diluted bacterial suspension were added to each well of a 96-well microtiter plate. Peptide solutions were prepared by dissolving the peptide in sterile MHB. Then, the plates were incubated overnight in a humidified atmosphere, and at 37 °C. Bacterial growth was determined by measuring the optical density (OD) at λ = 600 nm using an ELISA plate reader (Epoch, BioTek, Winooski, VT, USA) and the minimum inhibitory concentration (MIC) was determined.
(§4) As described in the previous section, the MIC and MBC values of antibiotics employed in this study were determined against subjected bacterial strains via preparing different concentrations of each antibiotic.

[5] = tested on: S. aureus (ATCC 43300); assay type: cell-based, Staphylococcus aureus; conditions: ATCC 43300, 24 h
Source text: as §1, §2, §3, §4

- MIC Value [4]: 55 µM
- MIC Value [5]: 15 µM
SMILES: N=C(N)NCCC[C@H](NC(=O)[C@H](Cc1ccc(-c2ccccc2)cc1)NC(=O)[C@H](CCCNC(=N)N)NC(=O)[C@H](Cc1ccc(-c2ccccc2)cc1)NC(=O)[C@@H](N)CCCNC(=N)N)C(=O)O [UP-5] (H-R[Bip]R[Bip]R-OH)
- IC50 [1]: > 250 µM
- Hemolysis (%) ([2]; 40 µM): 0.09%
- Hemolysis (%) ([2]; 60 µM): 1.01%
- Hemolysis (%) ([2]; 80 µM): 1.04%
- Hemolysis (%) ([2]; 150 µM): 3.0%
- Hemolysis (%) ([2]; 175 µM): 3.04%
- MBEC value (minimum biofilm eradication concentration) ([3]; ATCC 33591, 4 h): 20 µM
- MBCb (MBECb), minimum bactericidal concentration against biofilm cells ([3]; ATCC 33591, 8 h): 20 µM
- Viable Biofilm Cells (%) ([3]; peptide concentration 10 μM): 0.35%
- Viable Biofilm Cells (%) ([3]; peptide concentration 20 μM): 0.108%
- Viable Biofilm Cells (%) ([3]; peptide concentration 30 μM): 0.054%
- Viable Biofilm Cells (%) ([3]; peptide concentration 40 μM): 0%
- Viable Biofilm Cells (%) ([3]; peptide concentration 60 μM): 0%
- Viable Biofilm Cells (%) ([3]; peptide concentration 80 μM): 0%
- Viable Biofilm Cells (%) ([3]; peptide concentration 100 μM, compared to untreated biofilm): 0%
- MBC Value [4]: 55 µM
- MBC Value [5]: 15 µM
